Data: patent US20240041827A1, “COMPOSITIONS FOR THE TREATMENT OF FAT RELATED CONDITIONS AND DISORDERS” (priority 2020, published 2024)

Experiment: in vitro
Experimental: Human visceral preadipocytes were seeded in 96-well white clear bottom plates at 10,000 cells per well in 100 μl pre-adipocyte medium and incubated overnight at 37° C. 5% CO2. On the following day, adipogenic differentiation was induced by addition of 100 μl/well differentiation medium and incubation continued for 5 days. Adipogenic differentiation was verified by microscopic evaluation, addition of adipored reagents and fluorescent measurement at Ex485 nm/Em572 nm. […] Staurosporine (1 μM) and 0.2% DMSO were used as controls. Plates were incubated at 37° C. 5% CO2 for 2, 6 and 24 hours. Following incubation, cytotoxicity was measured using Cell Titer Glo 2.0 (Promega).
Test Item RZL-12 (1-300 μM) was prepared on the day of the testing as 150 mM stock solutions in DMSO. The 150 mM represents a 500×stock of the highest desired tested concentration. The 150 mM stock solution was first serially diluted in DMSO to acquire 500×stock solutions for each of the RZL-012 concentrations. The 500×stock solutions were then diluted 1:25 in medium to acquire 20×intermediate stock solutions. Finally, the 20×intermediate stock solutions were further diluted 1:20 in the assay (on the plate) that included seeded cells.
The 600 μM represents a 20× stock of the highest desired tested concentration. […] Finally, the 20×intermediate stock solutions were further diluted 1:20 in the assay plate that included seeded cells.
Human visceral pre-adipocytes (HPrAD-vis): HPrAD-vis cells (Lonza cat #PT-5005) were thawed at 37° C. and transferred into 50 ml tubes containing pre-adipocytes PGM-2 growth medium (PBM-2, 10% FBS, 1-glutamine, GA-1000). Cells were centrifuged at 300 g for 10 minutes, the supernatant was removed (Leaving about 1 ml of wash medium for not disrupting the cells) and 2 ml fresh PGM-2 medium was added. After resuspension, cells were counted and seeded in T-75 and T25 flasks at a density of 9,000 cells/cm^2 ([…], 225,000 cells/T25 flask). Medium was changed every 2-3 days until reached confluence of 70%.
Cells were sub-cultured only once, as soon as they reached 70% confluence. For this purpose, the culture medium of each flask was removed and cells were washed once with 5 ml PBS. The flask was shaken to ensure that the entire surface was covered and the PBS was removed. Then, 3 ml/T75 flask or 1 ml/T25 flask of fresh dedicated Trypsin/EDTA solution (from Lonza) was added and the flasks were incubated for 3-4 minutes at RT until ˜90% cells were detached. The Trypsin/EDTA solution was then neutralized by addition of 6 ml/T75 flask or 3 ml/T25 flask of full PGM-2 growth medium. Cells were collected in 50 ml tubes and centrifuged 10 minutes at 300 g. The supernatant was removed and the cells were resuspended in 3 ml fresh medium. Cells were then counted using a haemacytometer slide after being diluted 1:2 in trypan blue (SIGMA). For sub-culturing, cells were seeded in new T75 flasks at a density of 9,000 cells/cm^2 containing 15 ml fresh growth medium. Alternatively, the cells were seeded in 96-well culture plates at a density of 10,000 cells/well for the cell treatments.
HPrAD-vis cells: HPrAD-vis passaged once were seeded in 96-well plates as described above (10000cells/well in 100 μl medium) and allowed to settle overnight at 37° C., 5% CO2. Following day, adipogenic differentiation was induced by addition of 100 μl/well differentiation medium and incubated for 5 days. Adipogenic differentiation was verified by microscopic evaluation, addition of adipored reagents and fluorescent measurement at Ex485 nm/Em572 nm. In the morning of day 6, test and reference items were prepared as described above. Cells' medium was replaced with 90 μl fresh differentiation medium. […] Staurosporine (1 μM) and 0.2% DMSO were used as controls. Plates were incubated at 37° C. 5% CO2 for 2, 6 and 24 hours. Following incubation, cell viability was determined using the CellTiter-Gg® viability reagent (Promega) with reading of plates for luminescence. […]

## C[N+](C)(C)CCCCCn1c2ccc(Br)cc2c2cc(Br)ccc21.[Cl-] [RZL-012, 5-(3,6-dibromo-9H-carbazol-9-yl)-N,N,N-trimethylpentan-1-aminium chloride]
  IC50: ~30 µM
